# Key:
# [1] = system: C. elegans; test: Developmental rate (growth delay) of worms fed PG mutant E. coli with supplementation; assay type: in vivo; settings: supplement added
# Protocol: E. coli Keio collection screen: Bacterial peptidoglycan (PG) metabolism-related genes were determined based on the published papers (Table 1) and the PG mutant sub-library was assembled from the Keio E. coli single mutant collection. Mutant bacteria strains, as well as the wild-type control strain BW25113, were cultured overnight in LB medium with 50 μg/ml kanamycin in 96-well plates at 37° C. 100 μl of the overnight E. coli cultures were spotted onto 6 cm NGM plates and dried at room temperature for 1h before use. About 200 synchronized L1 worms were then placed on the seeded NGM plates and cultured at 20° C. Animals were screened after 54-56 hours. Worm developmental rates were determined by vulval development as previously described. To quantify the developmental rate, about 50 animals were scored under Nomarski microscope. To verify the genotypes of the 4 candidate Keio mutants, PCR were performed on each mutant colony and the control BW25113 strain using specific downstream genomic primers together with kanamycin-cassette-specific primers. […]
# (§1) Quantification and Statistical analysis: ImageJ software was used for quantifying fluorescence intensity of various of reporters. […]
# [2] = system: Phsp-6::gfp; test: Mt stress/UPRmt reporter (Phsp-6::gfp) in worms; assay type: in vivo, C. elegans; settings: worms fed PG mutant E. coli, supplement added
# Protocol: (§2) C. elegans strains and maintenance: C. elegans strains were grown and maintained on nematode growth media (NGM) plates seeded with the Escherichia coli strain OP50 at 20° C. The following strains were obtained from Caenorhabditis Genetics Center (CGC): N2 Bristol (wild-type control strain), SJ4100: zcIs13 [Phsp-6::gfp] V, SJ4058: zcIs9 [Phsp-60::gfp+lin-15 (+)/V, SJ4197: zcIs39 [Pdve-1::dve-1::gfp] II, SJ4005: zcIs4 [Phsp-4::gfp] V, TJ375: gpIs1 [Phsp-16.2::gfp], AY101: acIs101 [PF35E12.5::gfp+rol-6(su1006)], AU133: agIs17 [Pmyo-2::mCherry+Pirg-1::gfp] IV, CF1553: muIs84 [(pAD76) sod-3p::GFP+rol-6(su1006)]. mai-2 (xm19) was obtained from Dr. R. E. Navarro (Universidad Nacional Autonoma de Mexico).
# PG isolation, enzyme treatment and supplementation assays: An adapted method was used to isolate peptidoglycan from bacterial cultures. In brief, bacterial pellets were resuspended in 1/10 vol 1M NaCl solution and boiled at 100° C. in a heating block for 1 h. […]
# (§3) Microscopy: Analysis of fluorescence was performed under Nomarski optics on a Zeisis Axioplan2 microscope with a Zeiss AxioCam MRm CCD camera. […]
# as §1
# [3] = system: C. elegans; test: Food avoidance behavior assay; assay type: in vivo; settings: worms fed PG mutant E. coli, supplement added
# Protocol: Food avoidance behavior assay: Food avoidance behavior assay was determined using a method adapted from a published procedure (Kniazeva et al., 2015; Melo and Ruvkun, 2012). Briefly, overnight cultures of wild type and PG mutant E. coli were adjusted to the same OD600 and 20 μl of each culture was seeded on the center of 6 cm NGM plates. The seeded plates were dried at room temperature for 1 hour before use. About 100 synchronized L1 animals were then dropped onto the bacterial lawns and cultured for 45 hours at 20° C. The avoidance index was determined by Noff/on/Ntotal. Each assay was conducted in triplicate.
# Heat-killed E. coli preparation and supplementation: We followed an established protocol to prepare heat-killed (HK) E. coli: standard overnight bacterial cultures were concentrated to 1/10 vol and were then heated in a 75° C. water bath for 90 min. For HK-E. coli supplementation, live E. coli and HK-E. coli were mixed at a 1:1 ratio then 20 μl (avoidance behavior assay) or 50 μl (other assays) mixtures were dropped on the NGM plates and dried at room temperature for 10 min before use. About 100-200 synchronized L1 animals were placed on the bacterial lawn to grow at 20° C.
# PG isolation, enzyme treatment and supplementation assays: An adapted method was used to isolate peptidoglycan from bacterial cultures. […]
# [4] = system: SOD-3::GFP; test: SOD-3::GFP oxidative stress reporter in worms; assay type: in vivo, C. elegans; settings: worms fed erfK mutant E. coli
# Protocol: as §2
# Chemical supplementation: The NAC (Fisher Scientific, ICN10009825) stock solution (500 mM) was made in ddH2O. For NAC supplementation, NAC solution was added in NGM agar to the final concentration of 50 mM. For iron supplementation, FeCl3 (Sigma, 236489) was dissolved in ddH2O to generate solutions of desired concentration (2 mM, 8 mM and 20 mM). […]
# as §3, §1
# [5] = system: ROS; test: ROS staining (H2DCFDA) in C. elegans; assay type: in vivo; settings: worms fed erfK mutant E. coli
# Protocol: ROS measurements in C. elegans: The ROS staining protocol was modified from. Briefly, L4 stage animals were collected and washed three times with M9 buffer to remove the bacteria. Then the worms were transferred into the staining solution (H2DCFDA, 50 uM in M9 buffer) and incubated for 30 min at 20° C. After washing twice with M9 buffer, worms were subjected to microscopic examination.
Structure (SMILES),growth delay (developmental delay) [1],Mt stress (Phsp-6::gfp) [2],food avoidance behavior [3],increase in SOD-3 level (SOD-3::GFP) [4],ROS level (H2DCFDA staining) [5]
"[Cl][Fe]([Cl])[Cl] [iron, FeCl3]",could not suppress,could not suppress,,,
"CC(=O)N[C@@H](CS)C(=O)O [NAC, N-acetyl-L-cysteine]",significantly suppressed,significantly suppressed,significantly suppressed,eliminated,suppressed

# Reference: US20250295729A1, “NOVEL THERAPEUTIC METHODS OF USING PEPTIDOGLYCAN MUROPEPTIDES TO PROMOTE ATP SYNTHASE ACTIVITY AND MITOCHONDRIAL HOMEOSTASIS AND DEVELOPMENT” (The Regents of the University of Colorado, a body corporate, priority 2021, published 2025)
